According to patent publication US20070098693A1, “Methods for enhancing engraftment of purified hematopoietic stem cells in allogenic recipients” (priority 2003, published 2007):

Experiments:
Type in all cases: cell-based, mice
CD8^+/TCR^− FC [1] = experiment: Activation marker expression on sorted FC after 18 h culture (FACS)
Source text: (§1) mAbs and Flow cytometry. The following mAbs (all from BD Biosciences Pharmingen, San Diego, Calif., except those labeled with APC-cy-7 from eBioscience, San Diego, Calif.) were used. To sort CD8^+/TCR^− FC: anti-CD8α (53-6.7) PE-labeled, anti-TCR β chain (H57-597) and anti-TCR γδ chain (GL3) FITC-labeled. To sort B220^+/CD11c^dim/CD11b^− p-preDC: anti-CD11b (M1/70) APC-labeled, anti-CD45R/B220 (RA3-6B2) APC-Cy7-labeled, anti-CD11c (HL3) PE-labeled, and anti-TCR β chain (H57-597), anti-TCR γδ chain (GL3), anti-CD14 (rmC5-3), anti-CD19 (1D3), anti-Pan-NK cells (DX5), and anti-NK1.1 (PK136), all FITC-labeled. To sort HSC: anti-TCR β chain (H57-597), anti-TCR γδ chain (GL3), anti-Ly-6G (Gr-1), anti-CD11b, Mac1 (M1/70), anti-CD8α (53-6.7) and anti-CD45R/B220 (RA3-6B2), all FITC-labeled, anti-Ly-6A/E (Sca-1) (E13-161.7) PE-labeled and anti-c-Kit (CD117) (2B8) APC-labeled. To restain the sorted FC population: purified anti-CD16/CD32 (FcγIII/II receptors) (2.4G2), anti-CD11c (HL3), anti-CD4 (RM4-5) and anti-CD19 (1D3) all APC-labeled, anti-CD45R/B220 (RA3-6B2) PerCP-labeled, and anti-Pan-NK cells (DX5), anti-NK1.1 (PK136), anti-CD14 (rmC5-3), and anti-Ly-6G (Gr-1) FITC-labeled. To analyze the activation state: anti-CD80 (B7-1) ([…]), anti-CD86 (B7-2) ([…]), and anti-I-A^b (Aβ^b) (AF6-120.1) FITC-labeled. For PBL typing and multilineage chimerism: anti-H-2 K^b (AF6-88.5) PE or FITC-labeled, anti-H-2K^k (36-7-5) PE or FITC-labeled, anti-TCR β chain (H57-597), anti-NK1.1 (PK136), anti-Ly-6G (Gr-1), anti-CD11b, Mac1 (M1/70) and anti-CD45R/B220 (RA3-6B2) all FITC-labeled. Detection of dead cells after cell culture was determined by using a 7-Amino-actinomycin D (7-AAD) (Molecular Probes, Eugene, Oreg.) followed by FACS analysis.
(§2) CpG oligodeoxynucleotides (ODN) stimulation. Sorted p-preDC or FC were cultured for 18 hours at 10^5 cells/200 μL in 96 well round-bottom culture plates in culture medium in the presence or absence of Toll-like receptor (TLR)-9 ligand, CPG-ODN 1668 (TCCATGACGTTCCGATGCT) (SEQ ID NO. 1) (GibcoBRL Custom Primers) at 1 μM, TLR-4 ligand, LPS from Escherichia coli (Sigma, MO, USA) at 10 μg/ml, as previously described^30. CpG or LPS-treated or untreated cells were subsequently assayed for: 1) the expression of DC activation/maturation cell surface markers by FACS, 2) their survival rate by 7AAD staining, or 3) morphological appearance by Wright Giemsa staining on cytospins. The supernatant of these cultures were collected for analysis of the production of different cytokines by ELISA.

CD8^+/TCR^− FC [2] = experiment: Cell death of sorted FC after overnight culture (7AAD staining)
Source text: as §1, §2

CD8^+/TCR^− FC [3] = experiment: CpG ODN / LPS stimulation of sorted FC, cytokine production by ELISA / multiplex
Procedure: as §2
Cytokine production by ELISA. Briefly, the cell-free supernatants of 12H, 18H, or 24H cultured cells (FC or p-preDC,) with or without CpG ODN or LPS were collected and kept frozen at −80° C. The amount of cytokine produced was determined by 1) ELISA kits for mouse IFN-α (R&D system) and mouse TNF-α (Biosource International), and 2). Multiplex for MIP 1αCCL3), GM-CSF, MCP-1 (CCL2), RANTES (CCL5), IFN-γ, IL-1β, IL-2, IL-4, IL-5, IL-6, IL-10, IL-12p70, IL-9, and IL13 on 18 hour incubation supernatants from three different experiments performed by Linco Diagnostic Services (St. Charles, Mo.).

[4] = system: B220^+/CD11c^dim/CD11b^− p-preDC; experiment: Cell death of sorted p-preDC after overnight culture (7AAD staining)
Source text: as §1
CpG oligodeoxynucleotides (ODN) stimulation. […]

[5] = system: B220^+/CD11c^dim/CD11b^− p-preDC; experiment: Activation marker expression on sorted p-preDC after 18 h culture (FACS)
Source text: as §1, §2

[6] = FL-derived FC, CpG ODN exposure overnight
[7] = fresh BM FC, overnight exposure to CpG ODN, n=4
[8] = fresh FC, overnight culture with CpG
[9] = CpG ODN stimulation, 18 hours, multiplex
[10] = FL-derived FC and FL-derived p-preDC (FIG. 4c), CpG-ODN overnight
[11] = after culture with medium or CpG stimulation
[12] = FL-derived p-preDC, CpG ODN exposure overnight
[13] = fresh BM p-preDC, overnight exposure to CpG ODN, n=2

CpG ODN: Toll-like receptor (TLR)-9 ligand, CPG-ODN 1668 (TCCATGACGTTCCGATGCT) (SEQ ID NO. 1) (DNA, backbone and methylation of C not given here)
CD80 expression on FL-derived FC after CpG ODN (CD8^+/TCR^− FC [1]; [6]): 48% | CD86 expression on FL-derived FC after CpG ODN (CD8^+/TCR^− FC [1]; [6]): 77% | Class II expression on FL-derived FC after CpG ODN (CD8^+/TCR^− FC [1]; [6]): 73% | CD80 expression on FC (CD8^+/TCR^− FC [1]; [7]): 23.5±8% | CD86 expression on FC (CD8^+/TCR^− FC [1]; [7]): 86±12% | Class II expression on FC (CD8^+/TCR^− FC [1]; [7]): 74±6.5% | decrease of mortality of FL-treated FC (CD8^+/TCR^− FC [2]; FL-derived FC, CpG ODN overnight versus medium): 10-15% | decrease of FC mortality compared to media alone (CD8^+/TCR^− FC [2]; [8]): 10% | mortality of FC (dead cells) (CD8^+/TCR^− FC [2]; [8]): 43.5±3.5% | IL-6 production by FC (CD8^+/TCR^− FC [3]; [9]): moderate amounts | IL-12p70 production by FC (CD8^+/TCR^− FC [3]; [9]): low levels | Mip1-α/CCL3 production by FC (CD8^+/TCR^− FC [3]; [9]): high amounts | RANTES/CCL5 production by FC (CD8^+/TCR^− FC [3]; [9]): moderate amounts | TNF-α production by FC (CD8^+/TCR^− FC [3]; CpG ODN stimulation, 24 hours, ELISA): large amounts | IFN-α secretion of FL-derived cells after CpG-ODN (CD8^+/TCR^− FC [3]; [10]): increased further | IL-12p70 production of FL-derived cells after CpG-ODN (CD8^+/TCR^− FC [3]; [10]): increased further | TNF-α production of FL-derived cells after CpG-ODN (CD8^+/TCR^− FC [3]; [10]): increased further | GM-CSF production by FC (CD8^+/TCR^− FC [3]; [11]): no | IFN-γ production by FC (CD8^+/TCR^− FC [3]; [11]): low amounts | IL9 production by FC (CD8^+/TCR^− FC [3]; [11]): low amounts | IL-1β production by FC (CD8^+/TCR^− FC [3]; [11]): no | IL-2 production by FC (CD8^+/TCR^− FC [3]; [11]): no | IL-4 production by FC (CD8^+/TCR^− FC [3]; [11]): no | IL-5 production by FC (CD8^+/TCR^− FC [3]; [11]): no | IL-10 production by FC (CD8^+/TCR^− FC [3]; [11]): low amounts | IL-13 production by FC (CD8^+/TCR^− FC [3]; [11]): no | MCP-1/CCL2 production by FC (CD8^+/TCR^− FC [3]; [11]): low amounts | IFN-α production by FC (CD8^+/TCR^− FC [3]; sorted bone marrow FC cultured with stimulus, ELISA): levels similar to those produced by p-preDC | rescue of FL-derived p-preDC from death ([4]; CpG exposure (data not shown)): partially rescued | mortality of p-preDC (dead) ([4]; fresh p-preDC, overnight culture with CpG): 35±0.3% | CD80 expression on FL-derived p-preDC after CpG ODN [5, 12]: 63% | CD86 expression on FL-derived p-preDC after CpG ODN [5, 12]: 87% | Class II expression on FL-derived p-preDC after CpG ODN [5, 12]: 88% | CD80 expression on p-preDC [5, 13]: 12.5±1% | CD86 expression on p-preDC [5, 13]: 85±13% | Class II expression on p-preDC [5, 13]: 39±4%
